Assay [1] relates to primary macrophages from rat peritoneal cavity. In words: In vitro fluorescent labeling of primary macrophages from rat peritoneal cavity. Format: cell-based. Conditions: SD rats, cells cultured more than 2 days. As for the experimental part:
With the same process as in Example 9, extract cells from the abdominal cavity of 5 to 8 weeks old SD rats using 20 mL serum-free DMEM incomplete medium and culture the cells in a 96-well plate. After culturing for more than 2 days until the cells attached to the bottom firmly, a well was selected and added with EK24 fluorescent probe for incubation. Then the cells were observed under a fluorescence microscope (20×, light source 10%, exposure 200 ms, gain 5).

The subject of assay [2] is mouse macrophage cell line RAW264.7. In words: In vitro fluorescence labeled staining of a mouse macrophage cell line. The following applies: 10 μM, incubated 1 h. Format: cell-based. As for the experimental part: Culture the mouse macrophage cell line RAW264.7 in a 96-well plate, wash the wells once with 1×PBS buffer or a serum-free DMEM incomplete medium, remove the washing liquid, add EK24 solution of 10 μM which had been diluted with 100 μL of serum-free DMEM incomplete medium, and incubate in a cell culture incubator for 1 h. After that, wash the wells twice with 1× PBS buffer or the serum-free DMEM incomplete medium. Then, add DMEM complete medium containing 10% FBS and 1% streptomycin-penicillin, and double-stain the cells using nuclear dye Nucblue and observe under EVOS® FL Auto fluorescence microscope (Life Technologies, light source 10%, exposure 200 ms, gain 5).

For assay [3], the system named is cultured macrophages isolated from mouse peritoneal cavity. In words: In vitro fluorescent labeling of cultured macrophages isolated from mouse peritoneal cavity. Format: cell-based. Conditions: 10 μM EK24 premixed with F4/80 antibody, 1 h at 37 °C. The procedure: Inject 5 mL of serum-free DMEM incomplete medium into the abdominal cavity of 5 to 8 weeks old mice, massage the abdominal cavity gently for 10 min, and sacrifice the mice by cervical vertebra dislocation. Extract the fluid from the abdominal cavity gently with a syringe, inject into a 5 mL centrifuge tube and centrifuge at 1000 rpm for 5 min, remove the supernatant, and resuspend the collected ex-vivo cells in DMEM/F12 medium containing 10% FBS, then add into a 96-well plate for culture. Generally, if cells are taken intraperitoneally for in vitro culture, macrophages would tend to adhere to the bottom of the well, and other cells would be washed off. The cells were cultured for more than 2 days until the cells attached to the bottom firmly. At this time, the cells remaining in the wells were basically macrophages. Select two wells, one as a control and the other as an experimental well. The cells of the control were nuclear stained with Nucblue. The experimental well was added with a premix of AlexaFluor®488 anti-mouse F4/80 antibody (Biolegend) and EK24 fluorescent probe, and then incubated for 1 h at 37° ° C. The premix contained 10 μM of EK24 solution and 2 μL of Alexa Fluor®488 anti-mouse F4/80 antibody diluted with 100 μL of serum-free DMEM incomplete medium. […] The cells were observed under a fluorescence microscope (20× objective lens, light source 10%, exposure 200 ms, gain 5).

The subject of assay [4] is mouse peritoneal macrophages. Put plainly: In vivo fluorescent labeling of macrophages in a mouse abdominal cavity. Conditions: probe injected into abdominal cavity, cells extracted after 4 hours, fluorescence microscope. The procedure: Dilute 300 μL of 50 μM AK9 fluorescent probe solution with serum-free DMEM incomplete medium to obtain 1 mL of solution, then inject into the abdominal cavities of 5-8 week old Kunming mice. After 4 hours, inject 5 mL of 1×PBS, and massage. After 10 minutes, sacrifice the mice by cervical vertebra dislocation. Cut the abdominal cavity skin of the mice, pierce the abdominal wall muscle by syringe, and extract the fluid in the abdominal cavity of the mice. Centrifuge the extracted peritoneal fluid at 1000 rpm for 5 min, wash twice with 1×PBS. Double-stain an appropriate number of cells with Alexa Fluor 488 anti-mouse F4/80 antibody (Biolegend). Add the stained cells to a 96-well plate and stain with a nuclear dye Nucblue (Invitrogen). Observe under EVOS FL Auto fluorescence microscope (Life Technologies, 20×, light source 50%, exposure 200 ms, gain 10) after the suspended cells were settled down at the bottom of the plate.
Table 1 lists probes, which contain the polypeptide fragments from the C-terminal fragments of Triokinases/FMN cyclases of different species and were prepared by a similar process as described in Examples 1 and 2, and in vivo imaging results of mouse peritoneal macrophages using these probes.

The test system of assay [5] is monocyte precursors from New Zealand White Rabbit bone marrow mesenchyme. In words: In vitro fluorescent labeling of primary monocyte precursors of New Zealand White Rabbit. It is filed as cell-based. The following applies: cultured. The source says: With a similar process to Example 11, bone marrow monocyte precursors of New Zealand White Rabbit were taken and cultured, then labeled by using EK24 fluorescent probe and Nucblue. Then the cells were observed under a fluorescence microscope (20×, light source 10%, exposure 200 ms, gain 5).

In assay [6] the test system is mouse alveolar macrophages. In words: In vivo fluorescent labeling of mouse pulmonary macrophages after spraying through the trachea. The following applies: sprayed into the lungs through the trachea; whole lungs observed. An excerpt:
In yet another aspect of the present disclosure, it provides a method for convenient, oral and non-invasive in situ imaging or targeted drug administration for pulmonary immune cells. After spraying into the trachea of a mouse, the polypeptide or probe of the present disclosure can be diffused along the trachea in the living body, automatically target and aggregate in alveolar macrophages, and thus allow real-time and in situ imaging or targeted drug delivery to pulmonary and alveolar macrophages. The imaging may be maintained for more than 24 hours. The experiments of the present disclosure confirm that the probe described above can diffuse to lungs through mouth inhalation, and recognize macrophages therein, which is consistent with CD11c antibody recognizing alveolar macrophages.
Spray 100 μL of 50 μM EK24-drug into the lungs of 4- to 8-week-old mice through the trachea thereof, and after 18 hours, dilute 5 μL of Alexa Fluor®488 anti-mouse CD11c antibody (Biolegend) to 100 μL and then spray into the lung for 1.5 h. Dissect the mice, and take the whole lungs for observing under a fluorescence microscope (20×, light source 50%, exposure 200 ms, gain 5).

The subject of assay [7] is macrophages on mouse abdominal wall. In words: In vivo fluorescent labeling of macrophages on mouse abdominal wall. Conditions: injected with FITC anti-mouse CD68 antibody; abdominal wall muscle removed. The procedure: Referring to Example 3, using the same drug injection process, inject EK24, and FITC anti-mouse CD68 antibody (Biolegend) which was diluted with PBS from 2 μL to 500 μL. Remove mouse abdominal wall muscle for Nucblue double-staining and then observing under a fluorescence microscope (20×, light source 50%, exposure 200 ms, gain 5).

In assay [8] the test system is cultured peritoneal macrophages and other cells released from enzyme-digested mesenterium. In words: Selective labeling of cultured peritoneal macrophages among other cells released from enzyme-digested mesenterium. Format: cell-based, mouse. Conditions: peritoneal cells and mesenteries trypsin-digested, cultured 3 days. As for the experimental part: Take 5 to 8-week-old Kunming mice, inject intraperitoneally with 5 mL of serum-free DMEM incomplete medium. After 1 hour, sacrifice the mice by cervical vertebra dislocation. Make an incision on the skin of abdominal cavity, pierce the abdominal wall muscle using the syringe, and extract the fluid in the abdominal cavity of the mice. Wash twice with 1×PBS, collect peritoneal cells by centrifugation. Also take the mesenteries of the Kunming mice and purge twice with 1×PBS in centrifuge tubes. Incubate the obtained peritoneal cells and mesenteries in 0.25% trypsin solution and digest for 30 minutes. Enrich the cells by centrifugation, and then culture for 3 days in a 96-well plate using F12/DMEM culture solution containing 10% FBS and 1% streptomycin-penicillin. Referring to Example 5, label with the EK24 fluorescent probe and Nucblue. Then the cells were observed under a fluorescence microscope (20×, light source 10%, exposure 200 ms, gain 5).

Entries after “also recorded” stand apart in the source; their conditions may differ. No end group written: not given here.

“EQPDPGAVAAAAILRAILEVLQS-Y (EQPDPGAVAAAAILRAILEVLQSY; also: reporter type not given here; listed as Homo sapiens) [EK24, Y = reporter or cysteine/lysine + reporter]”: the “labeling of in vitro cultured primary macrophages from rat peritoneal cavity” value in assay [1] is “can effectively label”. Besides, the “fluorescent labeling of RAW264.7” value in assay [2] is “can be labeled”. The “co-localization of probe label and F4/80 antibody label” value in assay [3] is listed as “co-localized on the same cells”. Moreover, the “in vivo labeling / recognition of mouse peritoneal macrophages by the fluorescent probe” value in assay [4] is “can effectively recognize macrophages in vivo; also recorded: can be labeled”. In assay [5], the “labeling of New Zealand White Rabbit bone marrow monocyte precursors” value is reported as “capable of labeling”. Further, the “recognition of mouse alveolar / pulmonary macrophages” value in assay [6] is reported as “recognize the same cells in mouse alveoli”. In assay [7], the “labeling of macrophages on mouse abdominal wall” value is on record as “can be labeled” and the “labeling of other cells of mouse abdominal wall” value is reported as “cannot be labeled”. In assay [8], the “staining of macrophages in mixed culture” value is reported as “only stains macrophages” and the “staining of non-macrophages in mixed culture” value was “not stain non-macrophages”.

The values above are taken from patent US12031986B2, “Polypeptide for targeting recognition of immune cells and application thereof” (KEYANGLE LIFE TECHNOLOGY CO., LTD., priority 2019, dated 2024).
